From patent US10022342B2, “Methods and compositions for treating multiple myeloma” (Ohio State Innovation Foundation, priority 2015, dated 2018)

Key:
MM.1S cell line = experiment: Tumor size in MM.1S subcutaneous xenograft mice; format: in vivo; conditions: 25 mg/kg, 2 injections, at sacrifice
Method: To investigate if AR-42 treatment could affect CD44 expression in vivo, a xenograft MM mouse model was created by injecting 1×10^7 viable cells of MM.1S cell line subcutaneously into the right flank of 12 NOD-SCID mice. […] One group of mice (n=4) received intra-peritoneal injections of 25 mg/kg AR-42, while the second group (n=4) was injected with vehicle control (8% DMSO in PBS; Ctrl). Injections were administered once a day (on Monday and Wednesday). Because the anti-tumor activity of AR-42 has been previously reported in preclinical mouse studies, mice were sacrificed 2 days after the second injection in order to avoid tumor size reduction. […] Tumors were excised and used for CD44 immunohistochemical (IHC) studies, while the serum was collected for ELISA assays. […] Thus, AR-42 down-regulates CD44 directly in vivo.
Animal experiments were performed according to OSU institutional guidelines. To generate MM xenograft model, 1×10^7 viable MM.1S cells were injected subcutaneously into the right flank of 12 […]. The tumor size was measured once a week using a caliper, and the volume was calculated in cubed millimeters (mm3), using the formula L×W2/2. […] Mice were treated with […] injection of AR-42 (25 mg/kg) or DMSO (8% in PBS) once a day on Monday and Wednesday.

MM cells = experiment: IC50 concentrations of HDAC inhibitors in MM cells; format: cell-based; conditions: Homo sapiens
CD44 [1] = experiment: CD44 protein by immunoblot in MM cells; format: cell-based, human; conditions: 24-hr treatment, dose-dependent, vs DMSO control
Method: Reduction of CD44 mRNA and protein persisted for 48 hours after treatment (FIGS. 2C-2D and data not shown).
Cells were harvested by centrifugation, washed with PBS and lysed using buffer composed of 50 mM Tris (pH 7.5), 150 mM NaCl, 10% glycerol, 1.0% NP-40, 0.1% SDS, supplemented with protease and phosphatase inhibitors. Protein concentrations were estimated by Bradford assay and equivalent quantities of the lysates were resolved on 4-20% Tris-HCl SDS-PAGE TGX gels (Bio-Rad). Proteins were transferred to nitrocellulose membranes and stained for acetyl-histone H3 (Milipore), acetyl-histone H4 (Milipore), IGF2BP1 (Cell Signaling Technology), IGF2BP3 (IMP-3, Santa Cruz Biotechnology), CD44 (Santa Cruz Biotechnology), CD48 (Abcam), Drosha (Cell Signaling Technology), or glyceraldehyde 3-phosphate dehydrogenase (GAPDH, Cell Signaling Technology), followed by anti-mouse, or anti-rabbit IgG-HRP (GE Healthcare). Signals were developed using Pierce ECL Western Blotting Substrate (Thermo Fisher Scientific).

CD44 3′UTR element = experiment: CD44 3'UTR luciferase reporter assay in MM.1S cells; format: cell-based, human; conditions: 0.2 μM, 24 hours, vs untreated cells
Method: (§1) To address the molecular mechanism(s) responsible for downregulation of CD44 gene, the potential role of one or more cis regulatory regions was considered. […] The CD44 3′UTR element was subcloned downstream from the SV40 promoter-driven luciferase gene and transiently transfected the resulting reporter plasmid into MM.1S cells. Incubation of these cells with 0.2 μM AR-42 for 24 hours decreased luciferase activity detecting the activity of the CD44 3′UTR element by 35% as compared to untreated cells (FIG. 5A).
(Forward) 5′-gctagc[…]-3′ (SEQ ID NO: 1) and 5′- gctagc[…]-3′ (SEQ ID NO: 2) (engineered Nhel sites are in lower case), and the products were cloned into Xbal site downstream from the luciferase gene in pGL3-control vector (Promega). To generate IGF2BP3 luciferase reporter constructs, the 3′UTR was amplified by PCR using primers: (Forward) 5′-[…]-3′ (SEQ ID NO: 3) and (Reverse) 5′-[…]-3′ (SEQ ID NO: […]), and cloned into Xbal site of pGL3-control vector (Promega). Mutations in the miR-9-5p binding site of the IGF2BP3 3′UTR were introduced by the QuikChange Mutagenesis Kit (Stratagene) and the following primers:
Hela and 293T cells were transfected with 500 ng of 3′UTR-pGL3-control plasmid and 50 ng of Renilla luciferase expression construct (pRL-TK; Promega), using Lipofectamine 2000 (Invitrogen). […]

CD44 [2] = experiment: CD44 cell surface expression by flow cytometry in MM cell lines; format: cell-based, human
Method: The down-regulation of CD44 cell surface expression was also observed by flow cytometry in all MM cell lines tested expressing detectable CD44 levels (FIG. 1D, FIGS. 2E-2F and data not shown).
CD44 surface expression was analyzed by staining cells with CD44-FITC antibody (BD Biosciences) for 30 min. in the dark, at room temperature. Apoptosis was measured by Annexin V-FITC and Propidium Iodide (PI) (Clontech) staining for 15 min. in the dark, at room temperature and data immediately acquired on a Beckman Coulter FC500 (Beckman Coulter) machine. Analysis was conducted using the FlowJo Software vX.0.7 (Tree Star Inc.). For the multiparametric analysis, the bone marrow samples were stained with CD38-PE (347687; BD Bioscience), CD138-APC (347193; BD Bioscience), CD45-ECD (A07784; Beckman Coulter), CD44-FITC (BD Bioscience) and AnnexinV-FITC (Clontech) for 30 minutes, washed with PBS and immediately analyzed with Gallios cytometer (Beckman Coulter).

CD44 [3] = experiment: nCounter GX Human Immunology gene expression in MM.1S cells; format: cell-based; conditions: 0.1 μM, 24-hr, p<0.001
Method: Growth inhibitory and pro-apoptotic properties of AR-42 as a single agent treatment agent have been reported previously in numerous malignancies, including MM. Because of the potent immunomodulatory effects observed with classical pan-HDACi's, immunology-related gene networks altered upon AR-42 treatment in MM cells were investigated using nCounter technology to analyze the effects of AR-42 on the expression of 511 human genes in MM.1S cells following 24-hr treatment with 0.1 μM AR-42.
Total RNA was prepared using TRIzol (Invitrogen). The RNA was analyzed by nCounter GX Human Immunology Kit, or nCounter Human microRNA Kit, as recommended by the manufacturer (NanoString Technologies, Inc.). A total of 511 immunology related genes and 800 microRNAs were profiled.
Samples analyzed by NanoString assay were normalized using the variance stabilization. The mean linkage hierarchical clustering algorithm was conducted to identify subgroups of significant miRNAs. […] The obtained data were deposited in the GEO database (accession number).

CD44 promoter region = experiment: CD44 promoter luciferase reporter assay; format: cell-based, human; conditions: 0.2 μM, 24 hour; MM.1S, U266 and 293T
Method: as §1
Human CD44 promoter-luciferase reporter gene (CD44P pGL3) was obtained from Addgene (Plasmid 19122). The 3′UTR of CD44 was PCR amplified using following primers:
Hela and 293T cells were transfected with 500 ng of 3′UTR-pGL3-control plasmid and 50 ng of Renilla luciferase expression construct (pRL-TK; Promega), using Lipofectamine 2000 (Invitrogen). After 24 hrs cells were lysed and tested by Dual Luciferase Assay (Promega), according to the manufacturer's instructions. MM.1S cells were transfected with 1.8 μg of pGL3-based luciferase vector and 200 ng of pRL-TK, harvested 24 hrs later and assayed as above.

In the case of `CC(C)[C@H](C(=O)Nc1ccc(C(=O)NO)cc1)c1ccccc1` [AR-42, (S)-N-hydroxy-4-(3-methyl-2-phenylbutanamido)benzamide], the “tumor size vs vehicle group” value (MM.1S cell line) is reported as “still comparable”, the IC50 (MM cells) is reported as 0.2 µM and the CD44 protein levels (CD44 [1]) is reported as “consistently downregulated”. For the same compound, the “decrease of luciferase activity of the CD44 3′UTR element” value (CD44 3′UTR element) was 35%, the “CD44 cell surface expression” value (CD44 [2]; all MM cell lines tested expressing detectable CD44) was “down-regulation” and the “CD44 downregulation compared to other HDACi's” value (CD44 [2]; at comparable IC50 concentrations, vs SAHA, LBH589, JQ12) was “greater CD44 downregulation”. For the same compound, the “CD44 gene expression (nCounter)” value (CD44 [3]) was “most significantly downregulated” and the “activity of CD44 promoter region (luciferase)” value (CD44 promoter region) was “did not lower”.
